Test [1] addresses T1, CD73 enzymatic activity expressed on the cell surface of MDA-MB-231 cells (Homo sapiens, UniProt P21589).
T1 construct: Human breast cancer cells MDA-MB-231 that endogenously express CD73 were used; host or cells: MDA-MB-231
T1 sequence (P21589 27-549): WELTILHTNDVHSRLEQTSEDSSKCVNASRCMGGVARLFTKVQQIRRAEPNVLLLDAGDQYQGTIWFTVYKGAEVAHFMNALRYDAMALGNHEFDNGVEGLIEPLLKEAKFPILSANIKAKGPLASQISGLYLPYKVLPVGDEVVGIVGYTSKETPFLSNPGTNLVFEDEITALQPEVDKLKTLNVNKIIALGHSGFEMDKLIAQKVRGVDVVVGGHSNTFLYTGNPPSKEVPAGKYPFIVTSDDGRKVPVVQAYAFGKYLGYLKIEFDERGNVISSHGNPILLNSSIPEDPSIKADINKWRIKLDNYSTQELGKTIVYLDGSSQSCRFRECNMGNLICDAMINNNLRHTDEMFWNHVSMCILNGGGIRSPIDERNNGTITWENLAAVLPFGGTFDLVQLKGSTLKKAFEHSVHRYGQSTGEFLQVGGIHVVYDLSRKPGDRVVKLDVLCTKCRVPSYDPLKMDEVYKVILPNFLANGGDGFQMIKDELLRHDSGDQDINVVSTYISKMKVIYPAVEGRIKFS
The experiment in a line: Inhibition of CD73 enzymatic activity on the cell surface (Cell Titer Glo (CTG) experiment), MDA-MB-231 cells. The format is cell-based. The note with it: MDA-MB-231 cells endogenously expressing CD73, AMP, 37° C. for 2 hours, CTG readout; read-out: Cellular activity IC50. As to the method:
Human breast cancer cells MDA-MB-231 that endogenously express CD73 were used in the present invention to evaluate the inhibition of the compound against the CD73 enzymatic activity expressed on the cell surface. The cells used were from the Cell Bank of the Chinese Academy of Sciences. The specific experimental procedures were as follows:
1. Before the test, MDA-MB231 cells were seeded to a 96-well plate at 20000 cells/well;
2. In RPMI1640, 10% fetal bovine serum (Gibco, 10099-141), placed in a 5% CO2 incubator at 37° C. overnight (the cells were washed three times by using a serum-free RPMI medium right before the test):
3. 50 μl of serum-free media containing the compounds at different concentrations were added to the cells and incubated for 15 minutes;
4. 25 μL of 1.2 mM AMP was added for incubation at 37° C. for 2 hours, 25 μL of supernatant was then collected from the cells and mix with 25 μL of 100 μM ATP, and then the concentration of AMP in the samples was determined by CTG (Promega, #G7573);
5. Then, a reduction ratio of the substrate AMP level in the cell culture supernatant collected after the reaction was quantitatively determined to evaluate the inhibitory effects of the examples of the present invention and the positive compounds against the CD73 enzymatic activity on the cell surface;
6. Finally, the concentration of the compound leading to half maximal inhibition of enzymatic activity (IC50) was determined using a four-parameter non-linear logistic model curve fit in Graphpad Prism.
For orientation: ATP-based viability assays read luminescence as a measure of living cells.

The target of a further test is T2, CD73 (Homo sapiens, UniProt P21589).
T2 construct: purchased R&D systems 5795-EN-010
T2 sequence (P21589 27-547 limits assumed): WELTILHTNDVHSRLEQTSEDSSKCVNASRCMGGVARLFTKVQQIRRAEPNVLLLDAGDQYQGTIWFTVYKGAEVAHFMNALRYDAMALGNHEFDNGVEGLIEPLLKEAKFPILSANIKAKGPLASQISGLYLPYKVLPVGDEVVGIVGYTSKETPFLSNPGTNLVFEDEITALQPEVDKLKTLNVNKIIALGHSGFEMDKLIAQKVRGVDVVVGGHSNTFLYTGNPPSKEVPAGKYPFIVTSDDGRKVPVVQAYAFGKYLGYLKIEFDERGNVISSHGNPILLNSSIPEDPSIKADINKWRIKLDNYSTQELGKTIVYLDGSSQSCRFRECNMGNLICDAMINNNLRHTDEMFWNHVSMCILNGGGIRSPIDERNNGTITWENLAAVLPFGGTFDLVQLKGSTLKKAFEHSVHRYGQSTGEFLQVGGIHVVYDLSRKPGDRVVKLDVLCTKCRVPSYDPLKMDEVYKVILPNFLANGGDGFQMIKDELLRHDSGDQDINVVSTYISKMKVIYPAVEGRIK
The experiment in a line: In vitro enzymatic activity against CD73 (malachite green test using soluble CD73). The format is biochemical. Conditions: soluble CD73 36 ng/mL, 50 μM AMP, 30 minutes at 25° C. The method, then: The malachite green test using soluble CD73, which is synthesized in vitro was used in the present invention to determine the characteristics of inhibitory activity of the compounds against CD73. The specific experimental procedures were as following:
1. The enzyme reaction in this experiment was carried out in 384-well plates, and CD73 (R&D systems #5795-EN-010) at a concentration of 36 ng/mL, the compounds at different concentrations and 50 μM AMP were incubated for 30 minutes at 25° C. in a 40 uL reaction system (consisting of 25 mM Tris pH 7.5, 5 mM MgCl2, and 0.005% Tween-20);
2. Then, 10 μL of malachite green solution (Sigma) was added to each well to terminate the reaction;
3. The concentration of resulting inorganic phosphate was determined according to the instructions of the reagent manufacturer;
4. The enzymatic activity of CD73 was calculated based on the concentration of the product, and then IC50 values were determined by non-linear regression analysis of the inhibition percentage of the compounds of the present invention at different concentrations.

In the case of `O=P(O)(O)CP(=O)(O)OC[C@H]1C[C@@H](c2ccc3c(N[C@H]4CCc5cc(F)c(F)cc54)nc(Cl)nn23)[C@H](O)[C@@H]1O` [Example 31, (((((1R,2R,3S,4S)-4-(2-chloro-4-(((S)-5,6-difluoro-2,3-dihydro-1H-inden-1-yl)amino)pyrrolo[2,1-f][1,2,4]triazin-7-yl)-2,3-dihydroxycyclopentyl)methoxy)(hydroxy)phosphoryl)methyl)phosphonic acid], the half-inhibitory concentration (IC50) – broadly, the concentration that inhibits the measured activity by half – came to 950 pM in test [1] and 48600 pM against CD73.
As to `O=P(O)(O)CP(=O)(O)OC[C@H]1C[C@@H](c2ccc3c(N[C@@H]4CCc5cc(F)ccc54)nc(Cl)nn23)[C@H](O)[C@@H]1O` [Example 28, (((((1R,2R,3S,4S)-4-(2-chloro-4-(((R)-5-fluoro-2,3-dihydro-1H-inden-1-yl)amino)pyrrolo[2,1-f][1,2,4]triazin-7-yl)-2,3-dihydroxycyclopentyl)methoxy)(hydroxy)phosphoryl)methyl)phosphonic acid], the half-inhibitory concentration (IC50) in test [1] was 252 pM; at CD73, 3950 pM.
On the same counts, the results for `O=P(O)(O)CP(=O)(O)OC[C@H]1C[C@@H](c2ccc3c(N[C@H]4CCc5cc(F)cc(F)c54)nc(Cl)nn23)[C@H](O)[C@@H]1O` [Example 33, (((((1R,2R,3S,4S)-4-(2-chloro-4-(((S)-5,7-difluoro-2,3-dihydro-1H-inden-1-yl)amino)pyrrolo[2,1-f][1,2,4]triazin-7-yl)-2,3-dihydroxycyclopentyl)methoxy)(hydroxy)phosphoryl)methyl)phosphonic acid] are 2400 pM and 27900 pM.
As to `CN(c1cc(Cl)nc2c1cnn2[C@@H]1O[C@H](COP(=O)(O)CP(=O)(O)O)[C@@H](O)[C@H]1O)[C@H]1CCc2ccccc21` [Example 14, (((((2R,3S,4R,5R)-5-(6-chloro-4-(((S)-2,3-dihydro-1H-inden-1-yl)(methyl)amino)-1H-pyrazolo[3,4-b]pyridin-1-yl)-3,4-dihydroxytetrahydrofuran-2-yl)methoxy)(hydroxy)phosphoryl)methyl)phosphonic acid], the 50% inhibitory concentration (IC50) in test [1] turned out to be 450 pM; against CD73, 160 pM.
For the compound `O=P(O)(O)CP(=O)(O)OC[C@H]1O[C@@H](n2ncc3c(N[C@@H]4CCc5ccccc54)cc(Cl)nc32)[C@H](O)[C@@H]1O` [Example 13, (((((2R,3S,4R,5R)-5-(6-chloro-4-(((R)-2,3-dihydro-1H-inden-1-yl)amino)-1H-pyrazolo[3,4-b]pyridin-1-yl)-3,4-dihydroxytetrahydrofuran-2-yl)methoxy)(hydroxy)phosphoryl)methyl)phosphonic acid], the half-maximal inhibitory concentration (IC50) in test [1] is 130 pM; at CD73, 420 pM.
For the compound `C[C@H](Nc1cc(Cl)nc2c1cnn2[C@@H]1O[C@H](COP(=O)(O)CP(=O)(O)O)[C@@H](O)[C@H]1O)c1cccc(S(F)(F)(F)(F)F)c1` [Example 8, (((((2R,3S,4R,5R)-5-(6-chloro-4-(((S)-1-(3-(pentafluoro-λ^6-sulfanyl)phenyl)ethyl)amino)-1H-pyrazolo[3,4-b]pyridin-1-yl)-3,4-dihydroxytetrahydrofuran-2-yl)methoxy)(hydroxy)phosphoryl)methyl) phosphonic acid], the concentration for half-maximal inhibition (IC50) was 590 pM in test [1] and 2000 pM on CD73.
For `O=P(O)(O)CP(=O)(O)OC[C@H]1O[C@@H](n2ncc3c(N[C@@H]4CCc5ccc(C(F)(F)F)cc54)cc(Cl)nc32)[C@H](O)[C@@H]1O` [Example 20, (((((2R,3S,4R,5R)-5-(6-chloro-4-(((R)-6-(trifluoromethyl)-2,3-dihydro-1H-inden-1-yl)amino)-1H-pyrazolo[3,4-b]pyridin-1-yl)-3,4-dihydroxytetrahydrofuran-2-yl)methoxy)(hydroxy)phosphoryl)methyl)phosphonic acid], the IC50 came out at 270 pM in test [1] and 710 pM against CD73.
The matching figures for `O=P(O)(O)CP(=O)(O)OC[C@H]1C[C@@H](c2ccc3c(N[C@@H]4CCc5ccccc54)nc(Cl)nn23)[C@H](O)[C@@H]1O` [Example 25, (((((1R,2R,3S,4S)-4-(2-chloro-4-(((R)-2,3-dihydro-1H-inden-1-yl)amino)pyrrolo[2,1-f][1,2,4]triazin-7-yl)-2,3-dihydroxycyclopentyl)methoxy)(hydroxy)phosphoryl)methyl)phosphonic acid]: 550 pM and 5500 pM.
In the case of `C[C@@H](Nc1cc(Cl)nc2c1cnn2[C@@H]1O[C@H](COP(=O)(O)CP(=O)(O)O)[C@@H](O)[C@H]1O)c1cccc(S(F)(F)(F)(F)F)c1` [Example 9, (((((2R,3S,4R,5R)-5-(6-chloro-4-(((R)-1-(3-(pentafluoro-λ^6-sulfanyl)phenyl)ethyl)amino)-1H-pyrazolo[3,4-b]pyridin-1-yl)-3,4-dihydroxytetrahydrofuran-2-yl)methoxy)(hydroxy)phosphoryl)methyl) phosphonic acid], the 50% inhibitory concentration (IC50) in test [1] was 1450 pM; against CD73, 4800 pM.
Consider `Cc1cc(N[C@@H]2CCc3cc(F)ccc32)c2cnn([C@@H]3O[C@H](COP(=O)(O)CP(=O)(O)O)[C@@H](O)[C@H]3O)c2n1` [Example 24, (((((2R,3S,4R,5R)-5-(4-(((R)-5-fluoro-2,3-dihydro-1H-inden-1-yl)amino)-6-methyl-1H-pyrazolo[3,4-b]pyridin-1-yl)-3,4-dihydroxytetrhydrofuran-2-yl)methoxy)(hydroxy)phosphoryl)methyl)phosphonic acid], for which the IC50 was found to be 256 pM in test [1] and 1260 pM on CD73.
Regarding `O=P(O)(O)CP(=O)(O)OC[C@H]1C[C@@H](c2ccc3c(N[C@@H]4CCc5cc(F)c(F)cc54)nc(Cl)nn23)[C@H](O)[C@@H]1O` [Example 32, (((((1R,2R,3S,4S)-4-(2-chloro-4-(((R)-5,6-difluoro-2,3-dihydro-1H-inden-1-yl)amino)pyrrolo[2,1-f][1,2,4]triazin-7-yl)-2,3-dihydroxycyclopentyl)methoxy)(hydroxy)phosphoryl)methyl)phosphonic acid], the IC50 in test [1] worked out at 270 pM; on CD73, 4080 pM.
Regarding `O=P(O)(O)CP(=O)(O)OC[C@H]1O[C@@H](n2ncc3c(N[C@@H]4CCc5ccc(F)cc54)cc(Cl)nc32)[C@H](O)[C@@H]1O` [Example 17, (((((2R,3S,4R,5R)-5-(6-chloro-4-(((R)-6-fluoro-2,3-dihydro-1H-inden-1-yl)amino)-1H-pyrazolo[3,4-b]pyridin-1-yl)-3,4-dihydroxytetrahydrofuran-2-yl)methoxy)(hydroxy)phosphoryl)methyl)phosphonic acid], the results for the 50% inhibitory concentration (IC50) (in test [1]; at CD73) were 140 pM and 320 pM, respectively.

These data come from US12157755B2, “CD73 inhibitor, preparation method therefor and application thereof” (Abbisko Therapeutics Co., Ltd., priority 2019, dated 2024).
